Residues, ends and D or L forms follow the SMILES beside them.
Biological target: T1, soluble Aβ species (monomers, LMW and HMW Aβo) (Homo sapiens, UniProt P05067)
T1 construct: purchased Bachem; host or cells: chemical synthesis
Assay: Western blotting of soluble Aβ species (6E10 antibody)
Assay type: biochemical
Method: Aβ preparations (1 μg) were subjected to immunoblotting analysis and separated on 4-12% gradient SDS-PAGE gels, prior to being transferred on nitrocellulose membranes. After a 45 minutes blocking step in Tris-buffered saline, 0.1% Tween, pH 7.6, 5% milk, membranes were immunoblotted overnight at 4° C. with the 6E10 anti-Ab antibody diluted in Tris-buffered saline, 0.1% Tween, pH 7.6, with 2% milk. Horseradish peroxidase (HRP)-conjugated secondary anti-mouse antibody was next applied for 1 h30 at room temperature. Proteins were visualized with an ECL detection system and band intensities quantified using a densitometric analysis with Image J software.

[1] = Aβ aggregated with peptide for 24 hours, compared to the two other conditions

T1 sequence (P05067 672-713 limits assumed): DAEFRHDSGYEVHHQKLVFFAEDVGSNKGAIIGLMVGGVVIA

`CC(C)[C@H](NC(=O)[C@H](Cc1ccc(O)cc1)NC(=O)[C@@H](NC(=O)[C@H](CO)NC(=O)[C@H](Cc1c[nH]c2ccccc12)NC(=O)[C@H](CO)NC(=O)[C@H](CCCCN)NC(=O)[C@H](Cc1ccc(O)cc1)NC(=O)[C@H](CCCNC(=N)N)NC(=O)[C@H](CO)NC(=O)[C@H](CCCCN)NC(=O)[C@H](CCCCN)NC(=O)[C@H](CCCNC(=N)N)NC(=O)[C@@H](N)CCCCN)C(C)C)C(=O)NCC(=O)O` [BP, KRKKSRYKSWSVYVG] (H-KRKKSRYKSWSVYVG-OH; N-terminus and C-terminus assumed) was tested, and the “fraction of LMW Aβo” value (Aβ aggregated with peptide for 2 hours, compared to Aβ alone and Aβ and CP) was “significantly increased”, the “amount of HMW Aβo” value (Aβ aggregated with peptide for 2 hours, compared to the Aβ alone condition) was “significant decrease” and the “LMW Aβo and Aβ monomers” value [1] was “increase”. For the same compound, the “fraction of HMW Aβo” value [1] was “significant decrease”.

— patent US20250340593A1, “METHOD AND COMPOSITION FOR TREATING NEURODEGENERATIVE DISORDER” (priority 2022, published 2025)
